Measured values from article PMC3510438, “The transmembrane tyrosines Y56, Y91 and Y167 play important roles in determining the affinity and transport rate of the rabbit proton-coupled peptide transporter PepT1” (The International Journal of Biochemistry & Cell Biology, 2009).
Changes are numbered by the printed parent chain. Where a SMILES comes first, the peptide text is derived from it. [ ]: non-standard residue; d: D form. Sar = CNCC(=O)O

Key:
[1] = tested on: hPepT1 with mutations of Y167; set-up: method as in Yeung et al., 1998; settings: transfected HEK293 cells; ref Yeung et al., 1998; cited from earlier work
Y56F-rPepT1 [2] = molecular target: T1, Y56F-rPepT1 (Oryctolagus cuniculus, UniProt P36836, Y56F); assay: Competition of [3H]-D-Phe-L-Gln uptake into Xenopus oocytes, Ki; assay type: cell-based, rabbit; settings: pHout 5.5, n = 4; for Ki: inhibition of 0.4 μM [3H]-D-Phe-L-Gln uptake
T1 construct: expressed in transfected cells; host or cells: Xenopus laevis oocytes injected with cRNA
T1 sequence (P36836 1-707 Y56F): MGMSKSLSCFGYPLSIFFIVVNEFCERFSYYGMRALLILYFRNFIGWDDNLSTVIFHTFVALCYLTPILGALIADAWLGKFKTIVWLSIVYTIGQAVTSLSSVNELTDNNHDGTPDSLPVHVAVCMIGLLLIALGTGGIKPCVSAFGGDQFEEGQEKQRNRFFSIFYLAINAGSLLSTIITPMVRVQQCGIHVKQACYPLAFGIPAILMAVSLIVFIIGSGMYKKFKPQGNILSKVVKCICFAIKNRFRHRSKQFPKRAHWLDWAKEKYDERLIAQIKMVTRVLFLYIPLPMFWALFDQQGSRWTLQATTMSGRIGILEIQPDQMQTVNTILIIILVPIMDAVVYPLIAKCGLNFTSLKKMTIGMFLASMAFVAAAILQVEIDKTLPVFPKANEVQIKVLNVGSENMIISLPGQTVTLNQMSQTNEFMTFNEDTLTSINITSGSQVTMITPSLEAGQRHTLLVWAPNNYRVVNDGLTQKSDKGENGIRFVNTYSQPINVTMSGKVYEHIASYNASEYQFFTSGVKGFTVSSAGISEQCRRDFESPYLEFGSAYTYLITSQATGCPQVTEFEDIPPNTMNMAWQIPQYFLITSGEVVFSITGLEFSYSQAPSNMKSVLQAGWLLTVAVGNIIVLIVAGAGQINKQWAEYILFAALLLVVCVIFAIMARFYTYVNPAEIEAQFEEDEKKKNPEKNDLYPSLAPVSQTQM
Experimental: rPepT1 constructs were linearised with XbaI (New England Biolabs, UK) and cRNA generated by in vitro transcription (T7 mMessage mMachine, Ambion, Cambridgeshire, UK).
As a control non-injected oocytes were also incubated in uptake medium with D-Phe-L-Gln as above.

wild-type rPepT1 = molecular target: T2, wild-type rPepT1 (Oryctolagus cuniculus, UniProt P36836); assay: Competition of [3H]-D-Phe-L-Gln uptake into Xenopus oocytes, Ki by method of Deves and Boyd; assay type: cell-based, rabbit; settings: pHout 5.5; inhibition of 0.4 μM [3H]-D-Phe-L-Gln uptake; n = 4
T2 construct: expressed in transfected cells; host or cells: Xenopus laevis oocytes injected with cRNA
T2 sequence (P36836 1-707): T1 sequence (P36836 1-707 Y56F) with F56Y
Experimental: rPepT1 constructs were linearised with XbaI (New England Biolabs, UK) and cRNA generated by in vitro transcription (T7 mMessage mMachine, Ambion, Cambridgeshire, UK). Xenopus laevis oocytes were obtained under MS222 anaesthesia (0.2%, w/v) in accordance with the UK Animals (Scientific Procedures) Act, 1986, and maintained at 18 °C in modified Barth's medium (88 mM NaCl, 1 mM KCl, 0.82 mM MgSO4, 2.4 mM NaHCO3, 0.42 mM CaCl2, 10 mM Hepes, 5 mM sodium pyruvate, 50 μg ml^−1 gentamicin (Fluka, Poole, UK), adjusted to pH 7.6 with 1 M NaOH). Transport measurements were performed at least 72 h after micro-injection of oocytes with 27nl cRNA (1 μg/μl), with medium changed daily.
Uptake of [^3H]-D-Phe-L-Gln (17.4 Ci/mmole, custom synthesised, Cambridge Research Biochemicals, Stockton-on-Tees, UK) was performed as previously described ([Meredith, 2004]). Briefly, 5 oocytes were incubated in 100 μl of uptake medium (95 mM NaCl, 2 mM KCl, 1 mM CaCl2, 0.42 mM MgCl2, 10 mM Tris/Hepes pH 7.4 or Tris/Mes pH 5.5) with tracer (0.4 μM) [^3H]-D-Phe-L-Gln. After incubation, the oocytes were washed sequentially five times in 1 ml of ice-cold 120 mM NaCl solution, lysed individually with 100 μl 2% (w/v) SDS and liquid scintillation counted. As a control non-injected oocytes were also incubated in uptake medium with D-Phe-L-Gln as above.
The affinity of wild-type and mutant rPepT1 transporters were assessed by competition studies with 0.4 μM [^3H]-D-Phe-L-Gln and Gly-L-Gln present in the uptake medium in concentrations from 0 to 2 mM using the protocol above, and the Ki calculated using the method of [Deves and Boyd (1989)].

Y56A mutation of PepT1 = tested on: Y56A mutation of PepT1; set-up: method as in Chen et al. (2000); settings: ref Chen et al. (2000); cited from earlier work
Y56F-rPepT1 [3] = molecular target: T1, Y56F-rPepT1; set-up: method as in Chen et al. (2000); settings: Y56F mutant versus wild-type; ref Chen et al. (2000); cited from earlier work

For `CN(CC(=O)O)C(=O)CN` [Gly-Sar] (H-Gly-[Sar]-OH), the uptake [1] is given as “no measurable uptake”.
For `NC(Cc1ccccc1)C(=O)NC(Cc1ccc(O)cc1)C(=O)O` (stereo not drawn) [Phe-Tyr] (H-Phe-Tyr-OH; configuration not given here), the Ki (Y56F-rPepT1 [2]) was 0.86 ± 0.26 µM, the “fold change in affinity (Ki), wild-type rPepT1 versus Y56F-rPepT1” value (Y56F-rPepT1 [2]) was 336.4 ± 100.6 fold and the Ki (wild-type rPepT1) was 200 ± 30 µM.
In the case of `NC(=O)[C@H](Cc1ccc(O)cc1)NC(=O)[C@@H](N)Cc1ccccc1` [Phe-Tyr-NH2] (H-Phe-Tyr-NH2), the Ki (Y56F-rPepT1 [2]) is reported as 72.9 ± 20.5 µM, the “fold change in affinity (Ki), wild-type rPepT1 versus Y56F-rPepT1” value (Y56F-rPepT1 [2]) is reported as 64.4 ± 26.0 fold and the Ki (wild-type rPepT1) is reported as 6600 ± 1620 µM.
For `CC(C)C[C@H](NC(=O)CN)C(=O)O` [Gly-L-Leu], the transport (Y56A mutation of PepT1) is given as “lost completely” and the reduction of transport (Y56F-rPepT1 [3]) is given as “approximately 85%”.
